Values quoted from earlier work as cited in US12121591B2, “Sulfur-containing ionizable lipids for the delivery of nucleic acids and other therapeutic agents” (NanoVation Therapeutics Inc., priority 2022, dated 2024).

Details: delivery of siRNA, relative to KC2

For `CCCCC/C=C\C/C=C\CCCCCCCCC(CCCCCCCC/C=C\C/C=C\CCCCC)OC(=O)CCCN(C)C` [MC3], the “siRNA required, times less than KC2” value is given as “about 3 times”.
